US20250283124A1, “POLYHYDROXYALKANOATE-PRODUCING BACTERIA AND METHODS FOR MAKING AND USING THEM” (SAN DIEGO STATE UNIVERSITY (SDSU) FOUNDATION, DBA SAN DIEGO …, priority 2021, published 2025)

Test system: LW8
Assay: Antibiotic susceptibility testing (antibiotic disks), strain LW8
Type: cell-based, Methylosinus sp.
Conditions: antibiotic disks on solid P0% media, methane:air, one week, disk content as in column head
Protocol: Antibiotic Resistance Tests: To identify genetic markers suitable for genetic manipulation of PHA producing cultures, an antibiotic-resistance screening using antibiotic disks was performed. All strains were plated onto solid P0% media by spreading, then up to 4 antibiotic disks were placed on top. The plates were incubated under methane:air for one week and then were evaluated.

## [H]/N=C(/N)N[C@H]1[C@H](O)[C@@H](O)[C@H](O[C@@H]2O[C@@H](C)[C@](O)(C=O)[C@H]2O[C@@H]2O[C@@H](CO)[C@H](O)[C@@H](O)[C@@H]2NC)[C@@H](N/C(N)=N\[H])[C@@H]1O [Streptomycin]
  Antibiotic susceptibility testing (AST) results: Resistant
